According to patent US20250074891A1 (Anaxis Pharma Pty Ltd., priority 2021, published 2025):

Key:
[1] = tested on: U937 human histiocytic leukemia cell line; experiment: Cellular assay: inhibition of TSQ induced necroptosis (CellTitre-Glo); settings: Homo sapiens, U-937; U937 cells, TSQ cocktail, 48 hours, Table 38; read-out: Inhibition of TSQ-induced necroptosis (IC50 cell-based assay)
Description: […] ASSAY: Screening compounds for inhibition of TSQ induced necroptosis, 384 well plate format.
Cell Line ID: U937 human histiocytic leukemia cell line.
Cell Concentration (cells/well): Final cell density is 20,000 cells per well.
Cell growth medium: HT-RPMI medium+7.4% Fetal Bovine Serum (FBS). Cells are cultured in Corning 150 cm^z tissue culture flasks with vented caps at 37° C./5% CO2.
Incubation: Plates were incubated at 37° C./5% CO2 in a humidified incubator for 48 hours following addition of compounds and death stimuli (TSQ cocktail).
Compound concentration: 36 μM starting concentration, 1:3 dilution, 10 point
DMSO final concentration (% v/v): 0.3%.
Compounds in TSQ cocktail (T: TNF; S: Smac mimetic; Q: Q-VD-OPh) and their final concentrations: • hTNF-Fc (100 ng/ml)—produced by standard procedures as shown in Bossen et al., J Biol Chem, 2006, 281(20), 13964-13971. • Compound A (500 nM)—Smac mimetic, Tetralogic and SYNthesis med chem • Q-VD-OPh (10 μM)—MP Biomedicals
The cellular assay was carried out according to the following steps: • 1. Each well was prepared by sequential addition of: • a. DMSO (control; columns 1-2 and 23-24) or compound in DMSO—addition was performed using acoustic transfer of nl volumes of stock compound to give final test concentrations of 36, 12, 4, 1.3, 0.44, 0.148, 0.049, 0.016, 0.005 and 0.002 μM. All wells were backfilled with DMSO to a final total volume in the well of 100 nl. • b. Following compound/DMSO addition in step (a), 40 μL of cell suspension (5×10^5 cells/mL) was added to provide a final cell concentration of 20,000 cells per well, and • c. Following cell addition in step (b), 10 μL of 5×TSQ cocktail (except to positive controls; […]) was added to each well. • 2. After 48 hours, plate was removed from the 37° C. incubator and equilibrated to room temperature for 45 minutes. • 3. 15 μL of room temperature CellTitre-Glo2™ (Promega™) was added to each well. • 4. Shook plates for 2 minutes (˜600 rpm) and incubated at room temperature for 15 minutes to allow signal to stabilise. • 5. Read luminescence readout on a plate reader.
Percent viability was calculated for each compound according to equation (2):
[formula] • wherein • RawData is the readout of any cell containing a compound of the invention • TA is the total activity provided by the luminescence readout from DMSO only wells (columns 2 and 24)=100% viability • NSA is the non-specific activity provided by DMSO+TSQ wells (columns 1 and 23)=0% viability
Curve fitting: 10-point titration curves are fitted with the 4-parameter logistic nonlinear regression model and the IC50 reported is the inflection point of the curve.
Analysis: Data was loaded into Dotmatics™ and visualised using the Tibco® Spotfire™ software. 10 points titration curves were fitted with the 4-parameter logistic nonlinear regression model and the IC50 reported reflect the inflection point of the curve for curve fitting.
Assay involving the TSQ cocktail (T: TNF; S: Smac mimetic; Q: Q-VD-OPh): TSQ treatment ensures that cells specifically undergo necroptotic cell death. TNF activates the TNF receptor, Smac mimetic directs the signal away from proinflammatory signaling and toward the RIP1/RIP3-mediated cell death pathways, and Q-VD-OPh ensures that the apoptotic response is blocked leaving only the programmed necrosis response. The compounds' activity (solution in DMSO) tested in this TSQ-induced assay was evaluated by determining the number of viable cells in culture by measuring the amount of ATP present as measured by CelltiterGlo.

[2] = tested on: U937 cells; experiment: Counter screen: cell viability without TSQ cocktail (off-target effect); design: species or system human; settings: Homo sapiens, U-937, Table 38, read-out: Off-target effect (IC50 cell-based assay)
Description: Counter screen: In parallel, all compounds were tested for their ability to affect cell viability. The same U937 cells were treated with compound in DMSO without the TSQ cocktail. This counter screen enabled evaluation of off-target effects. In this case, cell viability was measured by CelltiterGlo.

[3] = target: MLKL (full length) (Homo sapiens (Human), UniProt Q8NB16); experiment: KINOMEscan binding assay, MLKL (full length); settings: Table 35
Description: (§1) Kinase assays. For most assays, kinase-tagged T7 phage strains were grown in parallel in 24-well blocks in an E. coli host derived from the BL21 strain. E. coli were grown to log-phase and infected with T7 phage from a frozen stock (multiplicity of infection=0.4) and incubated with shaking at 32° C. until lysis (90-150 minutes).
(§2) The Hill Slope was set to −1.

[4] = target: RIP1 (Homo sapiens (Human), UniProt Q13546); experiment: KINOMEscan binding assay, RIP1; settings: Table 35
[5] = target: RIP3 (Homo sapiens (Human), UniProt Q9Y572); experiment: KINOMEscan binding assay, RIP3; settings: Table 35
Description: as §1, §2

RIP3, sequence (Q9Y572 whole entry): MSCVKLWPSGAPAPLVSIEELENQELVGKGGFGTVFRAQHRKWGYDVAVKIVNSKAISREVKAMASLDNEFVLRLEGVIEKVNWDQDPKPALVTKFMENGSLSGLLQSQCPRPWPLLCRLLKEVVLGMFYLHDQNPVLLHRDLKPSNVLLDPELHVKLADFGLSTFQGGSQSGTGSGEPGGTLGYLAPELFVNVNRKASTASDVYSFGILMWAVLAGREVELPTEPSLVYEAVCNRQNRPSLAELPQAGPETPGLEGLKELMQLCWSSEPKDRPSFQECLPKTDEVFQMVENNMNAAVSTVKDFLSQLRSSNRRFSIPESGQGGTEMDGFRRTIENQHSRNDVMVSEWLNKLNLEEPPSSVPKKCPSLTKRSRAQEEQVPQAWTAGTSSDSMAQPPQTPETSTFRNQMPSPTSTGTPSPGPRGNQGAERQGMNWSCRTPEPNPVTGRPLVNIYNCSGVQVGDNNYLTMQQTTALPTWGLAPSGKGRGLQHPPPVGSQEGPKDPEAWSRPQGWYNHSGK
RIP1, sequence (Q13546 whole entry): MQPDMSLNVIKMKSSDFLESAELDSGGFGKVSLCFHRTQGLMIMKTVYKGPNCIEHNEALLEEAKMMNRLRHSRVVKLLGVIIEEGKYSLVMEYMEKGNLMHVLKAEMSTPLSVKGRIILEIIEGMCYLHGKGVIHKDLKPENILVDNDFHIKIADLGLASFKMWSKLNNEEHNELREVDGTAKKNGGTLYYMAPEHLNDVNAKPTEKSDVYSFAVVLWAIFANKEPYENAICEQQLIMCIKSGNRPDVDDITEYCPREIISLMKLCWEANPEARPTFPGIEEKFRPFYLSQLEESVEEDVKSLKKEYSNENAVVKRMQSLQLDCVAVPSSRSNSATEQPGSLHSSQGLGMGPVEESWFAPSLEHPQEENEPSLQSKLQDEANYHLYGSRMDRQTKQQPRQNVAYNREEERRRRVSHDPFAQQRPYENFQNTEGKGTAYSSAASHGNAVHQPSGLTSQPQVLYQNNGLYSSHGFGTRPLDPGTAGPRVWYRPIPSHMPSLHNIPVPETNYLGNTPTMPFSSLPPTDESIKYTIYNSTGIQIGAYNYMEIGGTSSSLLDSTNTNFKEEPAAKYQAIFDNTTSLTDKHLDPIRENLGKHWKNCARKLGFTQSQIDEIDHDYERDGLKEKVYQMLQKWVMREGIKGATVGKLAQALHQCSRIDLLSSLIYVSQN
MLKL (full length), sequence (Q8NB16 whole entry): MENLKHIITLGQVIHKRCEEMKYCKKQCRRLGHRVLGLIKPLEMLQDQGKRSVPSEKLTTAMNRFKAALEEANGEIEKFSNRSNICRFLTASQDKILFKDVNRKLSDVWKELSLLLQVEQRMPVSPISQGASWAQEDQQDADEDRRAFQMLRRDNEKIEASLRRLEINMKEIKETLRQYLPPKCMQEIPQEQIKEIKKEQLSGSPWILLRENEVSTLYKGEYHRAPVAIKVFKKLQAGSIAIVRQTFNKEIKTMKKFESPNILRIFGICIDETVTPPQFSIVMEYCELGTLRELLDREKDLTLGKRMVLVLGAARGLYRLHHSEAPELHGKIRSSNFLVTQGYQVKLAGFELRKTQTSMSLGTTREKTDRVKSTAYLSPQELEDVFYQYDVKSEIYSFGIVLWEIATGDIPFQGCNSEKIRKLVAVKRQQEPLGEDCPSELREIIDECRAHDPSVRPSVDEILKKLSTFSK

| SMILES | Kd [3] [µM] | Kd [4] [µM] | Kd [5] [µM] | IC50 [1] [µM] | IC50 [2] [µM] |
| --- | --- | --- | --- | --- | --- |
| CCS(=O)(=O)Nc1ccc(-c2n[nH]c(Nc3ccnc(OCCOCCNC(=O)COc4cccc5c4C(=O)N(C4CCC(=O)NC4=O)C5=O)c3)c2C(N)=O)cc1 (centres unmarked) [Compound 1003, 5-((2-(2-(2-(2-((2-(2,6-dioxopiperidin-3-yl)-1,3-dioxoisoindolin-4-yl)oxy)acetamido)ethoxy)ethoxy)pyridin-4-yl)amino)-3-(4-(ethylsulfonamido)phenyl)-1H-pyrazole-4-carboxamide] | – | – | – | > 10 | > 10 |
| NC(=O)c1c(-c2ccc(NS(=O)(=O)CC(F)(F)F)c(OC3(c4ccc(F)cc4)CC3)c2)n[nH]c1Nc1cnccn1 [Compound 144, 3-(3-(1-(4-fluorophenyl)cyclopropoxy)-4-((2,2,2-trifluoroethyl)sulfonamido)phenyl)-5-(pyrazin-2-ylamino)-1H-pyrazole-4-carboxamide] | < 0.01 | > 30 | > 30 | – | – |
| C[C@H](Oc1cc(-c2n[nH]c(Nc3cc(C(F)(F)F)n(C)n3)c2C(N)=O)ccc1NS(=O)(=O)C(F)F)c1ccc(F)cc1 [Compound 277, (S)-3-(4-((difluoromethyl)sulfonamido)-3-(1-(4-fluorophenyl)ethoxy)phenyl)-5-((1-methyl-5-(trifluoromethyl)-1H-pyrazol-3-yl)amino)-1H-pyrazole-4-carboxamide] | < 0.01 | > 30 | > 30 | – | – |
| COc1cnc(Nc2[nH]nc(-c3ccc(NS(=O)(=O)C(F)F)c(OCc4ccc(Cl)cc4)c3)c2C(N)=O)cn1 [Compound 190, 3-(3-((4-chlorobenzyl)oxy)-4-((difluoromethyl)sulfonamido)phenyl)-5-((5-methoxypyrazin-2-yl)amino)-1H-pyrazole-4-carboxamide] | < 0.01 | > 30 | > 30 | – | – |
| CCS(=O)(=O)Nc1ccc(-c2n[nH]c(Nc3cnc(OC)cn3)c2C(N)=O)cc1 [Compound 90, 3-(4-(ethylsulfonamido)phenyl)-5-((5-methoxypyrazin-2-yl)amino)-1H-pyrazole-4-carboxamide] | < 0.01 | > 30 | > 30 | – | – |
| CC(C)(C)n1nc(-c2ccc(N)c(OCc3ccc(F)cc3)c2)c(C(N)=O)c1Nc1cccc(C(F)(F)F)n1 [Compound 5, 3-(4-amino-3-((4-fluorobenzyl)oxy)phenyl)-1-(tert-butyl)-5-((6-(trifluoromethyl)pyridin-2-yl)amino)-1H-pyrazole-4-carboxamide] | 0.01 to 1 | > 30 | > 30 | – | – |
| CCS(=O)(=O)Nc1ccc(-c2n[nH]c(Nc3cnccn3)c2C(N)=O)cc1OCC1CCCCC1 [Compound 47, 3-(3-(cyclohexyl-methoxy)-4-(ethylsulfonamido)phenyl)-5-(pyrazin-2-ylamino)-1H-pyrazole-4-carboxamide] | < 0.01 | > 30 | > 30 | – | – |
| CCOc1cc(Nc2[nH]nc(-c3ccc(NS(=O)(=O)CC)cc3)c2C(N)=O)ccn1 [Compound 105, 5-((2-ethoxypyridin-4-yl)amino)-3-(4-(ethylsulfonamido)phenyl)-1H-pyrazole-4-carboxamide] | < 0.01 | > 30 | > 30 | – | – |

Further lines, with some results ahead:

| Kd [3] [µM] | Kd [4] [µM] | Kd [5] [µM] | SMILES | IC50 [1] [µM] | IC50 [2] [µM] |
| --- | --- | --- | --- | --- | --- |
| < 0.01 | > 30 | > 30 | NC(=O)c1c(-c2ccc(NS(=O)(=O)CC(F)(F)F)c(OC3(c4ccccc4)CC3)c2)n[nH]c1Nc1cnccn1 [Compound 161, 3-(3-(1-phenylcyclopropoxy)-4-((2,2,2-trifluoroethyl)sulfonamido)phenyl)-5-(pyrazin-2-ylamino)-1H-pyrazole-4-carboxamide] | – | – |
| < 0.01 | > 30 | > 30 | NC(=O)c1c(-c2ccc(NS(=O)(=O)C(F)F)c(OCc3ncco3)c2)n[nH]c1Nc1cnccn1 [Compound 313, 3-(4-((difluoromethyl)sulfonamido)-3-(oxazol-2-ylmethoxy)phenyl)-5-(pyrazin-2-ylamino)-1H-pyrazole-4-carboxamide] | – | – |
| < 0.01 | > 30 | > 30 | NC(=O)c1c(-c2ccc(NS(=O)(=O)CC(F)(F)F)cc2)n[nH]c1Nc1cnccn1 [Compound 137, 5-(pyrazin-2-ylamino)-3-(4-((2,2,2-trifluoroethyl)sulfonamido)phenyl)-1H-pyrazole-4-carboxamide] | – | – |
| < 0.01 | > 30 | > 30 | CCS(=O)(=O)Nc1ccc(-c2n[nH]c(Nc3cnccn3)c2C(N)=O)cc1OCc1cccc(F)c1 [Compound 26, 3-(4-(ethylsulfonamido)-3-((3-fluorobenzyl)oxy)phenyl)-5-(pyrazin-2-ylamino)-1H-pyrazole-4-carboxamide] | – | – |
| < 0.01 | > 30 | > 30 | C[C@H](Oc1cc(-c2n[nH]c(Nc3cc(C(F)F)on3)c2C(N)=O)ccc1NS(=O)(=O)C(F)F)c1ccc(F)cc1 [Compound 314, (S)-5-((5-(difluoromethyl)isoxazol-3-yl)amino)-3-(4-((difluoromethyl)sulfonamido)-3-(1-(4-fluorophenyl)ethoxy)phenyl)-1H-pyrazole-4-carboxamide] | – | – |
| < 0.01 | > 30 | > 30 | CCS(=O)(=O)Nc1ccc(-c2n[nH]c(Nc3cnccn3)c2C(N)=O)cc1O[C@@H](C)c1ccccn1 [Compound 230, 3-{4-ethanesulfonamido-3-[(1S)-1-(pyridin-2-yl)ethoxy]phenyl}-5-[(pyrazin-2-yl)amino]-1H-pyrazole-4-carboxamide] | – | – |
| < 0.01 | > 30 | > 30 | CCS(=O)(=O)Nc1ccc(-c2n[nH]c(Nc3cnc(C(F)(F)F)cn3)c2C(N)=O)cc1 [Compound 75, 3-(4-ethanesulfonamidophenyl)-5-{[5-(trifluoromethyl)pyrazin-2-yl]amino}-1H-pyrazole-4-carboxamide] | – | – |
| < 0.01 | > 30 | > 30 | CCS(=O)(=O)Nc1ccc(-c2n[nH]c(Nc3ccn(C)n3)c2C(N)=O)cc1 [compound 91, 3-(4-(ethyl-sulfonamido)phenyl)-5-((1-methyl-1H-pyrazol-3-yl)amino)-1H-pyrazole-4-carboxamide] | – | – |
| < 0.01 | > 30 | > 30 | Cc1cnc(Nc2[nH]nc(-c3ccc(NS(=O)(=O)CC(F)(F)F)c(OCc4ccc(Cl)c(F)c4)c3)c2C(N)=O)cn1 [Compound 146, 3-(3-((4-chloro-3-fluorobenzyl)oxy)-4-((2,2,2-trifluoroethyl)sulfonamido)phenyl)-5-((5-methylpyrazin-2-yl)amino)-1H-pyrazole-4-carboxamide] | – | – |
| < 0.01 | > 30 | > 30 | CCS(=O)(=O)Nc1ccc(-c2n[nH]c(Nc3cnccn3)c2C(N)=O)cc1O[C@H](C)c1ccc(F)cc1 [Compound 193, (R)-3-(4-(ethylsulfonamido)-3-(1-(4-fluorophenyl)ethoxy)phenyl)-5-(pyrazin-2-ylamino)-1H-pyrazole-4-carboxamide] | – | – |
